Measurements from patent US20240277698A1, “METHODS OF USING ALDOSTERONE SYNTHASE INHIBITORS” (CINCOR PHARMA, INC., priority 2021, published 2024).
Where two headings read alike, the source gives them in different places.

Experiments:
[1] = Renal impairment study, single 10 mg dose: safety; format: in vivo
Text: One subject with end stage disease experienced an unrelated SAE of metabolic encephalopathy and a moderate unrelated adverse event (AE) of tremor. One control subject experienced a mild AE of diarrhea, which was considered to be related to study drug by the Investigator. […] It is not necessary to dose adjust (R)-compound 1 for patients with renal impairment.
Overall, there were no deaths, 1 (3.0%) subject experienced an SAE, and no subjects discontinued due to a TEAE. Overall, 2 (6.1%) subjects experienced a total of 3 TEAEs: 1 (10.0%) subject in the control group experienced a TEAE of mild diarrhea following administration of (R)-compound 1 that was considered related to the study drug; no subjects experienced a TEAE in the (R)-moderate to severe renal impairment group; and 1 (8.3%) subject in the kidney failure group experienced 2 TEAEs of moderate tremor and severe metabolic encephalopathy (recorded as an SAE) following administration of (R)-compound 1 that were considered not related to the study drug. The SAE was thought to be secondary to the concomitant medications. As such, there was no apparent increase in incidence or severity of AEs with decreased renal function. There were no AEs, trends, or clinically meaningful changes in laboratory parameters. There were no AEs or clinically significant changes observed in vital signs, physical examinations, or 12-lead ECGs.

[2] = Relative bioavailability of tablet versus oral solution, single 5 mg dose; format: in vivo, human; settings: for AUC(0-inf) / AUC(0-t) / Cmax: 5 mg
Method: The relative bioavailability of the tablet formulation intended for use in future clinical studies as compared to the oral solution of (R)-compound 1 administered in the SAD and MAD was assessed following a single 5 mg dose of each formulation. Mean (+SD [standard deviation]) plasma concentration-time profiles following administration of the oral solution and tablet formulations are presented in FIG. 9.
Mean (SD) PK parameters of (R)-compound 1 following administration of the oral solution and tablet formulations are presented in Table 12.

## CCC(=O)N[C@@H]1CCCc2c(-c3ccc4c(c3)CCC(=O)N4C)cncc21 [(R)-Compound 1, (R)—N-(4-(1-methyl-2-oxo-1,2,3,4-tetrahydroquinolin-6-yl)-5,6,7,8-tetrahydroisoquinolin-8-yl)propionamide]
[1]; control group
  subjects experiencing a TEAE (mild diarrhea, related): 1 (10.0%)
[1]; kidney failure group
  subjects experiencing TEAEs (moderate tremor, severe metabolic encephalopathy, not related): 1 (8.3%)
[1]; moderate to severe renal impairment group
  subjects experiencing a TEAE: no subjects
[1]; overall, single 10 mg dose
  subjects experiencing TEAEs: 2 (6.1%)
  subjects experiencing an SAE: 1 (3.0%)
[1]; single 10 mg dose, varying degrees of renal function
  tolerability: well tolerated
[2]; human, plasma, oral, tablet, read-out: AUC0-inf, GM (Geo. CV %)
  AUC(0-inf): 1670 ng·h/mL
[2]; human, plasma, oral, tablet, read-out: AUC0-inf, Geo. LS Mean
  AUC(0-inf): 1720 ng·h/mL
[2]; human, plasma, oral, tablet, read-out: AUC0-inf, Mean
  AUC(0-inf): 1720 ng·h/mL
[2]; human, plasma, oral, tablet, read-out: AUC0-t, GM (Geo. CV %)
  AUC(0-t): 1580 ng·h/mL
[2]; human, plasma, oral, tablet, read-out: AUC0-t, Geo. LS Mean
  AUC(0-t): 1620 ng·h/mL
[2]; human, plasma, oral, tablet, read-out: AUC0-t, Mean
  AUC(0-t): 1620 ng·h/mL
[2]; human, plasma, oral, tablet, read-out: Cmax, GM (Geo. CV %)
  Cmax: 52.3 ng/mL
[2]; human, plasma, oral, tablet, read-out: Cmax, Geo. LS Mean
  Cmax: 52.8 ng/mL
[2]; human, plasma, oral, tablet, read-out: Cmax, Mean (SD)
  Cmax: 53.1 ng/mL
[2]; human, plasma, oral, tablet, read-out: Tmax, Median (min, max)
  Tmax: 3 h
[2]; human, plasma, po, oral solution, read-out: AUC0-inf, GM (Geo. CV %)
  AUC(0-inf): 1710 ng·h/mL
[2]; human, plasma, po, oral solution, read-out: AUC0-inf, Geo. LS Mean
  AUC(0-inf): 1680 ng·h/mL
[2]; human, plasma, po, oral solution, read-out: AUC0-inf, Mean
  AUC(0-inf): 1750 ng·h/mL
[2]; human, plasma, po, oral solution, read-out: AUC0-t, GM (Geo. CV %)
  AUC(0-t): 1610 ng·h/mL
[2]; human, plasma, po, oral solution, read-out: AUC0-t, Geo. LS Mean
  AUC(0-t): 1580 ng·h/mL
[2]; human, plasma, po, oral solution, read-out: AUC0-t, Mean
  AUC(0-t): 1650 ng·h/mL
[2]; human, plasma, po, oral solution, read-out: Cmax, GM (Geo. CV %)
  Cmax: 52.7 ng/mL
[2]; human, plasma, po, oral solution, read-out: Cmax, Geo. LS Mean
  Cmax: 52.1 ng/mL
[2]; oral solution
  AUCextrapolated, GM (Geo. CV %): 5.018 (56.4) %
  AUCextrapolated, Mean (SD): 5.565 (2.2131) %
  Cmax, Mean (SD): 53.886 (11.6813) ng/mL
  Tmax, Median (min, max): 2.500 (1.00, 3.50) h
[2]; tablet
  AUCextrapolated, GM (Geo. CV %): 4.995 (59.7) %
  AUCextrapolated, Mean (SD): 5.600 (2.3669) %
[2]; tablet versus oral solution
  AUC0-inf, Ratio of Geo. LS Means (tablet/solution): 102.2%
  AUC0-t, Ratio of Geo. LS Means (tablet/solution): 102.2%
  Cmax, Ratio of Geo. LS Means (tablet/solution): 101.2%
